According to ChEMBL document CHEMBL1909294, “Translating clinical findings into knowledge in drug safety evaluation--drug induced liver injury prediction system (DILIps)” (PLoS Comput Biol, 2011):

Columns and labels:
Hepatotoxicity [1] = tested on: Hepatotoxicity;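 on HepSE bilirubinemia: bilirubinemia hepatic side effect score drawn from the DILIps training data, a prediction system for drug-induced liver injury; call rule not given here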;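 on HepSE cholecystitis: Cholecystitis-related hepatic side effect score drawn from the DILIps (drug-induced liver injury prediction) training data set; call rule not given here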;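 on HepSE cholelithiasis: hepatic side effect score for cholelithiasis, drawn from the DILIps training data for predicting drug-induced liver injury; call rule not given here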;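 on HepSE cirrhosis: cirrhosis hepatic side effect score taken from the DILIps (drug-induced liver injury prediction) training set; call rule not given here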;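 on HepSE elevated liver function tests: hepatic side effect score for raised liver function tests, as recorded in the DILIps training set used for predicting drug-induced liver injury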; on HepSE hepatic failure: call rule not given here;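 on HepSE hepatomegaly: hepatic side effect score for hepatomegaly, taken from the training set of the DILIps drug-induced liver injury prediction system; call rule not given here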
Hepatotoxicity [2] = tested on: Hepatotoxicity; remark: listed apart in the source;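 on HepSE bilirubinemia: bilirubinemia hepatic side effect score drawn from the DILIps training data, a prediction system for drug-induced liver injury; call rule not given here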;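 on HepSE cholecystitis: Cholecystitis-related hepatic side effect score drawn from the DILIps (drug-induced liver injury prediction) training data set; call rule not given here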;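 on HepSE cholelithiasis: hepatic side effect score for cholelithiasis, drawn from the DILIps training data for predicting drug-induced liver injury; call rule not given here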;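 on HepSE cirrhosis: cirrhosis hepatic side effect score taken from the DILIps (drug-induced liver injury prediction) training set; call rule not given here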;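 on HepSE elevated liver function tests: hepatic side effect score for raised liver function tests, as recorded in the DILIps training set used for predicting drug-induced liver injury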; on HepSE hepatic failure: call rule not given here;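 on HepSE hepatomegaly: hepatic side effect score for hepatomegaly, taken from the training set of the DILIps drug-induced liver injury prediction system; call rule not given here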
Hepatotoxicity [3] = tested on: Hepatotoxicity; remark: listed apart in the source;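 on HepSE bilirubinemia: bilirubinemia hepatic side effect score drawn from the DILIps training data, a prediction system for drug-induced liver injury; call rule not given here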;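 on HepSE cholecystitis: Cholecystitis-related hepatic side effect score drawn from the DILIps (drug-induced liver injury prediction) training data set; call rule not given here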;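 on HepSE cholelithiasis: hepatic side effect score for cholelithiasis, drawn from the DILIps training data for predicting drug-induced liver injury; call rule not given here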;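 on HepSE cirrhosis: cirrhosis hepatic side effect score taken from the DILIps (drug-induced liver injury prediction) training set; call rule not given here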;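 on HepSE elevated liver function tests: hepatic side effect score for raised liver function tests, as recorded in the DILIps training set used for predicting drug-induced liver injury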; on HepSE hepatic failure: call rule not given here
Hepatotoxicity [4] = tested on: Hepatotoxicity; remark: listed apart in the source;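 on HepSE bilirubinemia: bilirubinemia hepatic side effect score drawn from the DILIps training data, a prediction system for drug-induced liver injury; call rule not given here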;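 on HepSE cholecystitis: Cholecystitis-related hepatic side effect score drawn from the DILIps (drug-induced liver injury prediction) training data set; call rule not given here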;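 on HepSE cholelithiasis: hepatic side effect score for cholelithiasis, drawn from the DILIps training data for predicting drug-induced liver injury; call rule not given here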;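 on HepSE cirrhosis: cirrhosis hepatic side effect score taken from the DILIps (drug-induced liver injury prediction) training set; call rule not given here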;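 on HepSE elevated liver function tests: hepatic side effect score for raised liver function tests, as recorded in the DILIps training set used for predicting drug-induced liver injury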; on HepSE hepatic failure: call rule not given here
Hepatotoxicity [5] = tested on: Hepatotoxicity; remark: listed apart in the source; on HepSE hepatic failure: call rule not given here
Hepatotoxicity [6] = tested on: Hepatotoxicity; remark: listed apart in the source; on HepSE hepatic failure: call rule not given here
Hepatotoxicity [7] = tested on: Hepatotoxicity; remark: listed apart in the source
Hepatotoxicity [8] = tested on: Hepatotoxicity; remark: listed apart in the source
Hepatotoxicity [9] = tested on: Hepatotoxicity; remark: listed apart in the source
Hepatotoxicity [10] = tested on: Hepatotoxicity; remark: listed apart in the source
Hepatotoxicity [11] = tested on: Hepatotoxicity; remark: listed apart in the source
Hepatotoxicity [12] = tested on: Hepatotoxicity; remark: listed apart in the source
Hepatotoxicity [13] = tested on: Hepatotoxicity; remark: listed apart in the source
Hepatotoxicity [14] = tested on: Hepatotoxicity; remark: listed apart in the source

SMILES | HepSE_bilirubinemia (Hepatotoxicity [1]) | HepSE_cholecystitis (Hepatotoxicity [2]) | HepSE_cholelithiasis (Hepatotoxicity [3]) | HepSE_cirrhosis (Hepatotoxicity [4]) | HepSE_elevated liver function tests (Hepatotoxicity [5]) | HepSE_hepatic failure (Hepatotoxicity [6]) | HepSE_hepatic necrosis (Hepatotoxicity [7]) | HepSE_hepatitis (Hepatotoxicity [8]) | HepSE_hepatomegaly (Hepatotoxicity [9]) | HepSE_jaundice (Hepatotoxicity [10]) | HepSE_liver disease (Hepatotoxicity [11]) | HepSE_liver fatty (Hepatotoxicity [12]) | HepSE_liver function tests abnormal (Hepatotoxicity [13]) | HepSE_Combined Scores (Hepatotoxicity [14]) | HepSE_elevated liver function tests (Hepatotoxicity [5]; Liver) | HepSE_liver function tests abnormal (Hepatotoxicity [13]; Liver)
CC(C)C(=O)Nc1ccc([N+](=O)[O-])c(C(F)(F)F)c1 [FLUTAMIDE] | 0 | 0 | 0 | 0 | 0 | 0 | 1 | 1 | 0 | 1 | 0 | 0 | 0 | 3 | – | –
CN(C)CCCC1(c2ccc(F)cc2)OCc2cc(C#N)ccc21 (configuration not stated) [CITALOPRAM] | 1 | 1 | 1 | 0 | 0 | 1 | 1 | 1 | 0 | 1 | 0 | 0 | 0 | 7 | – | –
CC(C)(S)[C@@H](N)C(=O)O [PENICILLAMINE] | 0 | 0 | 0 | 0 | 0 | 1 | 0 | 0 | 0 | 0 | 0 | 0 | 0 | 1 | – | –
CC(C)(C)C(=O)OCOP(=O)(COCCn1cnc2c(N)ncnc21)OCOC(=O)C(C)(C)C [ADEFOVIR DIPIVOXIL] | 0 | 0 | 0 | 0 | 0 | 1 | 0 | 0 | 0 | 0 | 0 | 0 | 0 | 1 | – | –
CC(C)NCC(O)c1ccc(NS(C)(=O)=O)cc1 (configuration not stated) [SOTALOL] | 0 | 0 | 0 | 0 | 0 | 0 | 0 | 0 | 0 | 0 | 0 | 0 | 0 | 0 | – | –
CC(=O)Nc1nnc(S(N)(=O)=O)s1 [ACETAZOLAMIDE] | 0 | 0 | 0 | 0 | 0 | 0 | 1 | 0 | 0 | 1 | 0 | 0 | 0 | 2 | – | –
CN1CCC[C@@H]1Cc1c[nH]c2ccc(CCS(=O)(=O)c3ccccc3)cc12 | 1 | 0 | 0 | 0 | 0 | 0 | 0 | 0 | 0 | 0 | 0 | 0 | 1 | 2 | – | –
CC(NC(C)(C)C)C(=O)c1cccc(Cl)c1 (configuration not stated) [BUPROPION] | 0 | 0 | 0 | 0 | 0 | 0 | 0 | 1 | 0 | 1 | 0 | 0 | 0 | 2 | – | –
CC[C@]1(O)C[C@@H]2CN(CCc3c([nH]c4ccccc34)[C@@](C(=O)OC)(c3cc4c(cc3OC)N(C)[C@H]3[C@@](O)(C(=O)OC)[C@H](OC(C)=O)[C@]5(CC)C=CCN6CC[C@]43[C@@H]65)C2)C1 [VINBLASTINE] | 0 | 0 | 0 | 0 | 0 | 0 | 0 | 0 | 0 | 0 | 0 | 0 | 0 | 0 | – | –
CC1(C)S[C@@H]2[C@H](NC(=O)[C@H](N)c3ccc(O)cc3)C(=O)N2[C@H]1C(=O)O [AMOXICILLIN] | 0 | 0 | 0 | 0 | 0 | 0 | 0 | 1 | 0 | 1 | 0 | 0 | 0 | 2 | – | –
OCc1cc(C(O)CNCCCCCCOCCCCc2ccccc2)ccc1O (configuration not stated) [SALMETEROL] | 0 | 0 | 0 | 0 | 0 | 0 | 0 | 0 | 0 | 0 | 0 | 0 | 0 | 0 | – | –
Clc1ccc(CSC(Cn2ccnc2)c2ccc(Cl)cc2Cl)cc1 (configuration not stated) [SULCONAZOLE] | 0 | 0 | 0 | 0 | – | 0 | 0 | 0 | 0 | 0 | 0 | 0 | – | 0 | 0 | 0
CC(C(=O)O)c1cccc(C(=O)c2ccccc2)c1 (configuration not stated) [KETOPROFEN] | 0 | 0 | 0 | 0 | 0 | 0 | 0 | 1 | 0 | 1 | 0 | 0 | 0 | 2 | – | –
